Experiments:
[1] = Pharmacokinetics of mice, single intravenous and oral administration, plasma; format: in vivo; conditions: male ICR mice; for F: gavage 10 mg/kg vs intravenous; for AUC(0-inf) / AUC(0-t) / Cmax / Tmax / half-life: mouse, plasma
Procedure: Study on Pharmacokinetics of Mice
1) Research purposes: In order to obtain the pharmacokinetic characteristics and blood-brain barrier of the tested compound in male ICR mice
Six healthy male ICR mice (body weight range 18-22 g) were taken and divided into 2 groups and 3 mice/group. After fasting overnight (only oral administration group), […], blood was collected by jugular vein puncture at time points 0.083 (IV only), 0.25, 0.5, 1, 2, 4, 6 (PO only), 8 and 24 hours, and at least 0.3 mL of whole blood was collected to EDTA-K2 anticoagulant tube. Plasma was centrifuged (6000 rpm, 8 minutes, 4° C.) within half an hour and frozen at −20° C. for later use.
(§1) Experimental results: According to the blood drug concentration data obtained, the non-compartmental model of WinNonlin® 7.0 software (Pharsight, USA) was used to calculate the pharmacokinetic parameters after administration.

[2] = Brain-blood ratio study in mice after single oral administration; format: in vivo; conditions: mouse, brain and plasma, male ICR mice, single oral 10 mg/kg, read-out: Cerebral blood ratio; for Kp at 2 h: time point 2 h; for Kp at 4 h: time point 4 h
Procedure: Brain-blood ratio study: 6 healthy male ICR mice (body weight range 18-22 g) were taken and divided into 2 groups and 3 mice/group. After fasting overnight, the compound to be tested (10 mg/kg) was administrated orally respectively. Blood was taken through cardiac puncture at time points 2 and 4 hours, at least 0.5 mL of whole blood was collected to EDTA-K2 anticoagulant tube. Plasma was centrifuged (6000 rpm, 8 minutes, 4° C.) within half an hour and frozen at −20° C. for later use. At the same time, the brain tissue was collected, rinsed with normal saline, then sucked to dryness with absorbent paper, weighed, and frozen at −20° C. for later use.
The cerebral blood ratio is very important to nerve drugs, and it can be seen from Table 3 that the compounds of the present invention have excellent cerebral blood ratio, which will bring better drug efficacy and excellent safety. By comparing the cerebral blood ratios of compound A, compound 1, compound B and compound J, it can be seen that after the tert-butyl of compound A or compound B has been changed into […]

[3] = biological target: T1, KCNQ2 potassium channel (CHO-KCNQ2 cells) (Homo sapiens, UniProt O43526); test: Potassium ion channel opener activity test (FDSS/μCELL detection, FluxOR thallium flux); format: cell-based; conditions: for Maximum agonist rate (%): highest test concentration 100 μM
T1 construct: expressed in transfected cells; host or cells: CHO cells stably expressing KCNQ2, kept under G418 selection
Procedure: Potassium Ion Channel Opener Activity Test (FDSS/μCELL Detection)
1.1 Experimental procedure
Cell preparation: CHO-KCNQ2 cells were cultured in a 175 cm^2 culture flask, and when the cell density grew to 60-80%, the culture medium was removed, washed with 7 mL PBS (Phosphate Buffered Saline) once, then 3 mL 0.25% Trypsin was added to digest. After the digestion was completed, 7 mL culture medium (90% DMEM/F12+10% FBS±500 μg/mL G418) was added to neutralize, centrifugated for 3 minutes at 800 rpm. The supernatant was aspirated, then 5 mL culture medium was added to resuspend, and then the cells were counted.
Cell plating: according to the results of cell counting, the density was adjusted to 3×10^4 cells/well. After standing at room temperature for 30 minutes, the plate was placed in a 37° C. CO2 incubator and incubated overnight for 16-18 hours. The cell density reached about 80%.
Fluorescent dye incubation: the cell culture medium was discarded, 80 μL/well loading buffer was added, and incubated in the dark at room temperature for 60 minutes. Compound incubation: the loading buffer was discarded, 80 μL/well prepared compound solution was added, and incubated in the dark at room temperature for 20 minutes.
Fluorescence data collection: FDSS/μCELL instrument was used for real-time fluorescence signal recording with excitation wavelength at 480 nm and emission wavelength at 540 nm, recorded 1 time per second, and 20 μL/well stimulation buffer was started to add after recording for 10 seconds for baseline, and then continued to record until the end of 180 seconds.
The above buffer come from a commercially available kit named FluxOR potassium ion channel assay.
20 mM DMSO compound mother liquor was prepared, 10 μL of 20 mM compound mother liquor was took into 20 μL DMSO solution, serially diluted 3 times to 8 intermediate concentrations; then the intermediate concentrations of the compound was took out and added to the test buffer, diluted for 200 times to get the final concentration to be tested, 80 μL was took out and added to the test plate.
The highest test concentration was 100 μM, followed by […], 33.33, 11.11, 3.70, 1.23, 0.41, 0.137, 0.045 μM, total 8 concentrations. Each concentration set 3 duplicate wells.
This concentration of DMSO has no effect on the KCNQ2 potassium channel.
Experimental data was analyzed by Excel 2007 and GraphPad Prism 5.0 software, and the ratio of 180 seconds was calculated to calculate the agonism effect. The agonism effect of the compound was calculated by the following formula: […]
Reagent: FluxORTM Detection Kit (Invitrogen, Cat #F0017)
The experimental data in the report must meet the following criteria: Z′ Factor>0.5
2. Results: See Table 1, wherein the smaller the EC50 is, the higher the activity of the corresponding compound is.

[4] = Pharmacokinetics of rats, single intravenous and oral administration, plasma; format: in vivo; conditions: male SD rats; for F: gavage 5 mg/kg vs intravenous 0.3 mg/kg; for AUC(0-inf) / AUC(0-t) / Cmax / Tmax / half-life: rat, plasma
Procedure: Study on Pharmacokinetics of Rats
1) Research purpose: To obtain the pharmacokinetic characteristics of the compounds to be tested in male SD rats.
Pharmacokinetic study: 6 healthy male SD rats (SPF grade) were divided into 2 groups and 3 rats/group. After fasting overnight (only oral administration group), compound A was administrated 0.3 mg/kg intravenously and 5 mg/kg orally, blood was collected by jugular vein puncture at time points 0.083 (IV only), 0.25, 0.5, 1, 2, 4, 6 (PO only), 8 and 24 hours, and at least 0.3 mL of whole blood was collected to EDTA-K2 anticoagulant tube. Plasma was centrifuged (6000 rmp, 8 minutes, 4° C.) within half an hour and frozen at −20° C. for later use.
as §1

[5] = intravenous 1 mg/kg (footnote *)

T1 sequence (O43526 whole entry): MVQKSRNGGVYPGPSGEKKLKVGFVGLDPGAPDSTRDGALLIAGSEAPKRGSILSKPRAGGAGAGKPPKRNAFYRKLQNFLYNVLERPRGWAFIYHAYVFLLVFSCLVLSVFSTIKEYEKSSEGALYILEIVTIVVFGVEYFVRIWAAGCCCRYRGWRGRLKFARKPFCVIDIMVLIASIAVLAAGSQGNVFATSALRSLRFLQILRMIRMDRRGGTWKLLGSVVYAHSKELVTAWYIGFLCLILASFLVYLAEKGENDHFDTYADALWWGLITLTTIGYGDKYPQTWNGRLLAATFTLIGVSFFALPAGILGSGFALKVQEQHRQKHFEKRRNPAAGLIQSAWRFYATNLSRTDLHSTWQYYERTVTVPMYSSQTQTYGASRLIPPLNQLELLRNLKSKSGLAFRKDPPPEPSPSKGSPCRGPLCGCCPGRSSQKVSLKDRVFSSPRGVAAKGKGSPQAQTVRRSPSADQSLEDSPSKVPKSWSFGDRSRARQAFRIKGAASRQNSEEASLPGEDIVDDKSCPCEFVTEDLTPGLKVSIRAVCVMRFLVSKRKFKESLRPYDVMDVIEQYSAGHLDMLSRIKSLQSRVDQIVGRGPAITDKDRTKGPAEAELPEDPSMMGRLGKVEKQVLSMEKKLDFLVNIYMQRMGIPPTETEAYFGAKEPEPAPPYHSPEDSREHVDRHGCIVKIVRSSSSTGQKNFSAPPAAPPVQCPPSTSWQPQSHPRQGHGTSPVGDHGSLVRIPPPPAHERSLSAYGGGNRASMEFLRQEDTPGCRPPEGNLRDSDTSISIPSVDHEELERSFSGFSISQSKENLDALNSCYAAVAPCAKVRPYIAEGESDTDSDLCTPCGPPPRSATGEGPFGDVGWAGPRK

Row | F [1] [%] | AUC(0-inf) ([1]; po, gavage 10 mg/kg) [ng·h/mL] | AUC(0-t) ([1]; po, gavage 10 mg/kg) [ng·h/mL] | Cmax ([1]; po, gavage 10 mg/kg) [ng/mL] | Tmax ([1]; po, gavage 10 mg/kg) [min] | half-life ([1]; po, gavage 10 mg/kg) [h] | Kp at 2 h [2] | Kp at 4 h [2] | EC50 [3] [nM] | Maximum agonist rate (%) [3] [%] | Compound | other results
1 | 19.18 | 703 | 693 | 374 | 15 | 1.81 | 4.1 | 3.2 | – | – | Cc1cc2c(c(C)c1NC(=O)CC1(C)CC1)CCN(c1ccc(F)cc1F)C2 [Compound J] | AUC(0-inf) [1, 5]: 366 ng·h/mL; AUC(0-t) [1, 5]: 361 ng·h/mL; Cmax [1, 5]: 942 ng/mL; Tmax [1, 5]: 4.8 min; half-life [1, 5]: 0.88 h
2 | – | – | – | – | – | – | – | – | 180 | 33.2 | Cc1cc2c(c(C)c1NC(=O)CC1(C)CC1)CCN(c1ccc(Cl)cc1)C2 [Compound W] | –
3 | – | – | – | – | – | – | – | – | 270 | 48.11 | Cc1cc2c(c(C)c1NC(=O)CC1(C)CC1)CCN(c1cccc(C(F)(F)F)c1)C2 [Compound A4] | –
4 | – | – | – | – | – | – | – | – | 210 | 36.16 | [2H]C1([2H])c2cc(C)c(NC(=O)CC3(C)CC3)c(C)c2CCN1c1ccc(C(F)(F)F)cc1 [Compound A3] | –
5 | – | – | – | – | – | – | – | – | 72 | 28.94 | Cc1cc2c(c(C)c1NC(=O)CC1(C)CC1)CCN(c1ccc(I)cc1)C2 [Compound X] | –
6 | 88.56 | 1430 | 1400 | 776 | 15 | 2.64 | 0.99 | 0.72 | 160 | 37.5 | Cc1cc2c(c(C)c1NC(=O)CC(C)(C)C)CCN(c1ccc(F)cc1F)C2 [Compound B] | AUC(0-inf) [1, 5]: 161 ng·h/mL; AUC(0-t) [1, 5]: 158 ng·h/mL; Cmax [1, 5]: 405 ng/mL; Tmax [1, 5]: 4.8 min; half-life [1, 5]: 0.94 h; F [4]: 43.63%; AUC(0-inf) ([4]; po, gavage 5 mg/kg): 1080 ng·h/mL; AUC(0-t) ([4]; po, gavage 5 mg/kg): 1070 ng·h/mL; Cmax ([4]; po, gavage 5 mg/kg): 128 ng/mL; Tmax ([4]; po, gavage 5 mg/kg): 240 min; half-life ([4]; po, gavage 5 mg/kg): 208 min; AUC(0-inf) ([4]; intravenous 0.3 mg/kg): 149 ng·h/mL; AUC(0-t) ([4]; intravenous 0.3 mg/kg): 147 ng·h/mL; Cmax ([4]; intravenous 0.3 mg/kg): 352 ng/mL; Tmax ([4]; intravenous 0.3 mg/kg): 4.8 min; half-life ([4]; intravenous 0.3 mg/kg): 120 min
7 | – | – | – | – | – | – | – | – | 340 | 45.76 | Cc1cc2c(c(C)c1NC(=O)CC1(C)CC1)CCN(c1ccccc1)C2 [Compound V] | –
8 | 33.79 | 793 | 792 | 142 | 40.2 | 2.61 | 2.3 | 2.8 | 440 | 37.97 | Cc1cc2c(c(C)c1NC(=O)CC(C)(C)C)CCN(c1ccc(F)cc1)C2 [Compound A] | AUC(0-inf) ([1]; intravenous 0.5 mg/kg): 118 ng·h/mL; AUC(0-t) ([1]; intravenous 0.5 mg/kg): 117 ng·h/mL; Cmax ([1]; intravenous 0.5 mg/kg): 270 ng/mL; Tmax ([1]; intravenous 0.5 mg/kg): 4.8 min; half-life ([1]; intravenous 0.5 mg/kg): 0.99 h; F [4]: 38.93%; AUC(0-inf) ([4]; po, gavage 5 mg/kg): 1280 ng·h/mL; AUC(0-t) ([4]; po, gavage 5 mg/kg): 909 ng·h/mL; Cmax ([4]; po, gavage 5 mg/kg): 154 ng/mL; Tmax ([4]; po, gavage 5 mg/kg): 90 min; half-life ([4]; po, gavage 5 mg/kg): 184 min; AUC(0-inf) ([4]; intravenous 0.3 mg/kg): 144 ng·h/mL; AUC(0-t) ([4]; intravenous 0.3 mg/kg): 140 ng·h/mL; Cmax ([4]; intravenous 0.3 mg/kg): 332 ng/mL; Tmax ([4]; intravenous 0.3 mg/kg): 4.8 min; half-life ([4]; intravenous 0.3 mg/kg): 59.4 min
9 | 83.77 | 30900 | 5990 | 315 | 520 | 84.3 | 6.4 | 5.96 | 34 | 38.22 | Cc1cc2c(c(C)c1NC(=O)CC1(C)CC1)CCN(c1ccc(C(F)(F)F)cc1)C2 [Compound P] | AUC(0-inf) ([1]; intravenous 0.5 mg/kg): 383 ng·h/mL; AUC(0-t) ([1]; intravenous 0.5 mg/kg): 357 ng·h/mL; Cmax ([1]; intravenous 0.5 mg/kg): 382 ng/mL; Tmax ([1]; intravenous 0.5 mg/kg): 4.8 min; half-life ([1]; intravenous 0.5 mg/kg): 2.67 h

Row | Compound | F [1] [%] | AUC(0-inf) ([1]; po, gavage 10 mg/kg) [ng·h/mL] | AUC(0-t) ([1]; po, gavage 10 mg/kg) [ng·h/mL] | Cmax ([1]; po, gavage 10 mg/kg) [ng/mL] | Tmax ([1]; po, gavage 10 mg/kg) [min] | half-life ([1]; po, gavage 10 mg/kg) [h] | Kp at 2 h [2] | Kp at 4 h [2] | EC50 [3] [nM] | Maximum agonist rate (%) [3] [%] | other results
10 | Cc1cc2c(c(C)c1NC(=O)CC1(C)CC1)CCN(c1ccc(Br)cc1)C2 [Compound Y] | – | – | – | – | – | – | – | – | 200 | 37.96 | –
